Test results as given in ChEMBL document CHEMBL3603789, “N-Lipidated Peptide Dimers: Effective Antibacterial Agents against Gram-Negative Pathogens through Lipopolysaccharide Permeabilization” (J Med Chem, 2015).
Values after ≈ are worked out from the molar mass of the structure shown. Active and inactive are the calls of the source. The rule behind the calls is not given here. Bridge positions count the residues as written; N and C are the ends. Peptide text beside a SMILES is read from it. I, II: the chains in the order shown. * marks the point of attachment. Palmitoyl = CCCCCCCCCCCCCCCC(=O)*; Myristoyl = CCCCCCCCCCCCCC(=O)*; Lauroyl = CCCCCCCCCCCC(=O)*; Decanoyl = CCCCCCCCCC(=O)*

Key:
Pseudomonas aeruginosa [1] = assay: Antibacterial activity against Pseudomonas aeruginosa DR5790 after 24 hrs by broth microdilution method; type: functional; conditions: DR5790, 24 h
[2] = Induction of calcein leakage from DOPC artificial membrane at 1:32 ratio of compound to lipid by fluorescence assay; type: physicochemical
Pseudomonas aeruginosa [3] = assay: Antibacterial activity against Pseudomonas aeruginosa DM4150R after 24 hrs by broth microdilution method; type: functional
Pseudomonas aeruginosa [4] = assay: Antibacterial activity against Pseudomonas aeruginosa DR18531 after 24 hrs by broth microdilution method; type: functional; conditions: DR18531, 24 h
Lipopolysaccharide (LPS) [5] = assay: Induction of Escherichia coli 0111:B4 LPS neutralization using p-nitroaniline assessed as concentration required to neutralize 50% after 1 hr by limulus amebocyte lysate assay
Pseudomonas aeruginosa [6] = assay: Antibacterial activity against Pseudomonas aeruginosa DM23376 after 24 hrs by broth microdilution method; type: functional; conditions: DM23376, 24 h
Pseudomonas aeruginosa [7] = assay: Antibacterial activity against Pseudomonas aeruginosa DR4877 after 24 hrs by broth microdilution method; type: functional; conditions: DR4877, 24 h
Pseudomonas aeruginosa [8] = assay: Antibacterial activity against Pseudomonas aeruginosa ATCC 9027 after 24 hrs by broth microdilution method; type: functional; conditions: ATCC 9027, 24 h
Klebsiella pneumoniae = assay: Antibacterial activity against Klebsiella pneumoniae DM4299 after 24 hrs by broth microdilution method; type: functional; conditions: DM4299, 24 h
Escherichia coli = assay: Antibacterial activity against Escherichia coli ATCC 25922 after 24 hrs by broth microdilution method; type: functional; conditions: ATCC 25922, 24 h
Pseudomonas aeruginosa [9] = assay: Antibacterial activity against Pseudomonas aeruginosa ATCC 27853 after 24 hrs by broth microdilution method; type: functional; conditions: ATCC 27853, 24 h
Pseudomonas aeruginosa [10] = assay: Antibacterial activity against Pseudomonas aeruginosa DM23257 after 24 hrs by broth microdilution method; type: functional; conditions: DM23257, 24 h
Pseudomonas aeruginosa [11] = assay: Antibacterial activity against Pseudomonas aeruginosa DM23155 after 24 hrs by broth microdilution method; type: functional; conditions: DM23155, 24 h
Pseudomonas aeruginosa [12] = assay: Antibacterial activity against Pseudomonas aeruginosa DU14476 after 24 hrs by broth microdilution method; type: functional; conditions: DU14476, 24 h
Pseudomonas aeruginosa [13] = assay: Induction of 1-N-phenylnaphthylamine uptake in Pseudomonas aeruginosa DM23155 at 400 uM after 1 hr by fluorescence assay relative to polymyxin B; type: functional
[14] = Toxicity in New Zealand white rabbit erythrocytes assessed as hemolytic activity after 60 mins; type: cell-based, Oryctolagus cuniculus; conditions: erythrocyte, 1 h
Lipopolysaccharide (LPS) [15] = assay: Displacement of dansylcadaverine from Escherichia coli 0111:B4 LPS at 15 to 30 uM after 5 mins by high-throughput fluorescence displacement assay
[16] = Self-aggregation activity of the compound using 8-(Phenylamino)-1-naphthalenesulfonic acid as fluorescent probe at 300 uM by fluorescence assay; type: physicochemical
[17] = Induction of calcein leakage from DOPE/DOPG artificial membrane at 1:32 ratio of compound to lipid by fluorescence assay; type: physicochemical
Pseudomonas aeruginosa [18] = assay: Induction of cytoplasmic membrane depolarization in Pseudomonas aeruginosa DM23155 at 4 times MIC after 1 hr by fluorescence assay; type: functional, organism-based
Pseudomonas aeruginosa [19] = assay: Induction of cytoplasmic membrane disruption in Pseudomonas aeruginosa DM23155 assessed as membrane integrity at 1 to 2 times MIC after 1 hr by fluorescence assay; type: functional
[20] = Self-aggregation activity of the compound using 8-(Phenylamino)-1-naphthalenesulfonic acid as fluorescent probe at 300 uM by fluorescence assay in presence of 150 mM of NaCl; type: physicochemical
[21] = Self-aggregation activity of the compound using 8-(Phenylamino)-1-naphthalenesulfonic acid as fluorescent probe at 20 uM by fluorescence assay; type: physicochemical
[22] = Self-aggregation activity of the compound using 8-(Phenylamino)-1-naphthalenesulfonic acid as fluorescent probe at 100 uM by fluorescence assay; type: physicochemical

| Activity [2] | EC50 (Lipopolysaccharide (LPS) [5]) [µM] | MIC (Klebsiella pneumoniae) [µM] | MIC (Escherichia coli) [µM] | MIC (Pseudomonas aeruginosa [11]) [µM] | Activity (Lipopolysaccharide (LPS) [15]) [%] | Activity [16] [%] | Activity [20] | Activity [21] [%] | Activity [22] [%] | SMILES | Activity (Pseudomonas aeruginosa [13]) [%] | HC10 [14] [µg/mL] | further results |
| --- | --- | --- | --- | --- | --- | --- | --- | --- | --- | --- | --- | --- | --- |
| Active | 142 | 3 (≈ 7.29 µg/mL) | 6 (≈ 14.6 µg/mL) | 3 (≈ 7.29 µg/mL) | 122 | – | – | – | – | CCCCCCCCCC(=O)N[C@@H](CCCNC(=N)N)C(=O)NCC(=O)N[C@@H](CCCNC(=N)N)C(=O)N[C@@H](CCCCN)C(=O)NCC(=O)NCC(=O)N[C@@H](CCCNC(=N)N)C(=O)N[C@@H](CCCNC(=N)N)C(=O)NCCCC[C@H](NC(=O)[C@H](CCCNC(=N)N)NC(=O)[C@H](CCCNC(=N)N)NC(=O)CNC(=O)CNC(=O)[C@H](CCCCN)NC(=O)[C@H](CCCNC(=N)N)NC(=O)CNC(=O)[C@H](CCCNC(=N)N)NC(=O)CCCCCCCCC)C(=O)N[C@@H](CCCCN)C(=O)O (I: Decanoyl-RGRKGGRRKK-OH / II: Decanoyl-RGRKGGRR; amide I:9-II:C) | 44.3 | > 10000 | MIC (Pseudomonas aeruginosa [1]): 3 µM (≈ 7.29 µg/mL); MIC (Pseudomonas aeruginosa [3]): 6 µM (≈ 14.6 µg/mL); MIC (Pseudomonas aeruginosa [4]): 6 µM (≈ 14.6 µg/mL); MIC (Pseudomonas aeruginosa [6]): 6 µM (≈ 14.6 µg/mL); MIC (Pseudomonas aeruginosa [7]): 6 µM (≈ 14.6 µg/mL); MIC (Pseudomonas aeruginosa [8]): 6 µM (≈ 14.6 µg/mL); MIC (Pseudomonas aeruginosa [9]): 3 µM (≈ 7.29 µg/mL); MIC (Pseudomonas aeruginosa [10]): 6 µM (≈ 14.6 µg/mL); MIC (Pseudomonas aeruginosa [12]): 3 µM (≈ 7.29 µg/mL) |
| Active | 62.8 | 6 (≈ 14.9 µg/mL) | 6 (≈ 14.9 µg/mL) | 6 (≈ 14.9 µg/mL) | 126 | 62.5 | – | – | – | CCCCCCCCCCCC(=O)N[C@@H](CCCNC(=N)N)C(=O)NCC(=O)N[C@@H](CCCNC(=N)N)C(=O)N[C@@H](CCCCN)C(=O)NCC(=O)NCC(=O)N[C@@H](CCCNC(=N)N)C(=O)N[C@@H](CCCNC(=N)N)C(=O)NCCCC[C@H](NC(=O)[C@H](CCCNC(=N)N)NC(=O)[C@H](CCCNC(=N)N)NC(=O)CNC(=O)CNC(=O)[C@H](CCCCN)NC(=O)[C@H](CCCNC(=N)N)NC(=O)CNC(=O)[C@H](CCCNC(=N)N)NC(=O)CCCCCCCCCCC)C(=O)N[C@@H](CCCCN)C(=O)O (I: Lauroyl-RGRKGGRRKK-OH / II: Lauroyl-RGRKGGRR; amide I:9-II:C) | 55.9 | 517 | – |
| Active | 29 | 6 (≈ 15.9 µg/mL) | 6 (≈ 15.9 µg/mL) | 6 (≈ 15.9 µg/mL) | 130 | 27.6 | – | – | – | CCCCCCCCCCCC(=O)N[C@@H](CCCNC(=N)N)C(=O)NCC(=O)N[C@@H](CCCNC(=N)N)C(=O)N[C@@H](CCCCN)C(=O)N[C@H](C(=O)N[C@H](C(=O)N[C@@H](CCCNC(=N)N)C(=O)N[C@@H](CCCNC(=N)N)C(=O)NCCCC[C@H](NC(=O)[C@H](CCCNC(=N)N)NC(=O)[C@H](CCCNC(=N)N)NC(=O)[C@@H](NC(=O)[C@@H](NC(=O)[C@H](CCCCN)NC(=O)[C@H](CCCNC(=N)N)NC(=O)CNC(=O)[C@H](CCCNC(=N)N)NC(=O)CCCCCCCCCCC)C(C)C)C(C)C)C(=O)N[C@@H](CCCCN)C(=O)O)C(C)C)C(C)C (I: Lauroyl-RGRKVVRRKK-OH / II: Lauroyl-RGRKVVRR; amide I:9-II:C) | – | 543 | Activity [17]: Active; Activity (Pseudomonas aeruginosa [18]): Active; Activity (Pseudomonas aeruginosa [19]): <50% |
| Active | 35.3 | 10 (≈ 25.4 µg/mL) | 10 (≈ 25.4 µg/mL) | 6 (≈ 15.3 µg/mL) | 124 | – | Active | 50 | 50 | CCCCCCCCCCCCCC(=O)N[C@@H](CCCNC(=N)N)C(=O)NCC(=O)N[C@@H](CCCNC(=N)N)C(=O)N[C@@H](CCCCN)C(=O)NCC(=O)NCC(=O)N[C@@H](CCCNC(=N)N)C(=O)N[C@@H](CCCNC(=N)N)C(=O)NCCCC[C@H](NC(=O)[C@H](CCCNC(=N)N)NC(=O)[C@H](CCCNC(=N)N)NC(=O)CNC(=O)CNC(=O)[C@H](CCCCN)NC(=O)[C@H](CCCNC(=N)N)NC(=O)CNC(=O)[C@H](CCCNC(=N)N)NC(=O)CCCCCCCCCCCCC)C(=O)N[C@@H](CCCCN)C(=O)O (I: Myristoyl-RGRKGGRRKK-OH / II: Myristoyl-RGRKGGRR; amide I:9-II:C) | 39.2 | 82 | – |
| Active | 43 | 10 (≈ 26 µg/mL) | 10 (≈ 26 µg/mL) | 10 (≈ 26 µg/mL) | 106 | – | Active | 50 | 50 | CCCCCCCCCCCCCCCC(=O)N[C@@H](CCCNC(=N)N)C(=O)NCC(=O)N[C@@H](CCCNC(=N)N)C(=O)N[C@@H](CCCCN)C(=O)NCC(=O)NCC(=O)N[C@@H](CCCNC(=N)N)C(=O)N[C@@H](CCCNC(=N)N)C(=O)NCCCC[C@H](NC(=O)[C@H](CCCNC(=N)N)NC(=O)[C@H](CCCNC(=N)N)NC(=O)CNC(=O)CNC(=O)[C@H](CCCCN)NC(=O)[C@H](CCCNC(=N)N)NC(=O)CNC(=O)[C@H](CCCNC(=N)N)NC(=O)CCCCCCCCCCCCCCC)C(=O)N[C@@H](CCCCN)C(=O)O (I: Palmitoyl-RGRKGGRRKK-OH / II: Palmitoyl-RGRKGGRR; amide I:9-II:C) | 36.5 | 64 | – |
